Test results from publication PMC9230797, “Integration of a Physiologically Based Pharmacokinetic and Pharmacodynamic Model for Tegoprazan and Its Metabolite: Application for Predicting Food Effect and Intragastric pH Alterations” (Pharmaceutics, 2022).
“And” between values parts separate entries of the source, which are not always exact repeats. Identical values can stand only once.

Experiments:
CYP2C9 = biological target: T1, CYP2C9 (Homo sapiens, UniProt P11712); assay: Intrinsic clearance using recombinant CYPs: CYP2C9; format: in vitro ADME
T1 construct: purchased Corning Life Sciences (Woburn, MA, USA)
T1 sequence (P11712 whole entry): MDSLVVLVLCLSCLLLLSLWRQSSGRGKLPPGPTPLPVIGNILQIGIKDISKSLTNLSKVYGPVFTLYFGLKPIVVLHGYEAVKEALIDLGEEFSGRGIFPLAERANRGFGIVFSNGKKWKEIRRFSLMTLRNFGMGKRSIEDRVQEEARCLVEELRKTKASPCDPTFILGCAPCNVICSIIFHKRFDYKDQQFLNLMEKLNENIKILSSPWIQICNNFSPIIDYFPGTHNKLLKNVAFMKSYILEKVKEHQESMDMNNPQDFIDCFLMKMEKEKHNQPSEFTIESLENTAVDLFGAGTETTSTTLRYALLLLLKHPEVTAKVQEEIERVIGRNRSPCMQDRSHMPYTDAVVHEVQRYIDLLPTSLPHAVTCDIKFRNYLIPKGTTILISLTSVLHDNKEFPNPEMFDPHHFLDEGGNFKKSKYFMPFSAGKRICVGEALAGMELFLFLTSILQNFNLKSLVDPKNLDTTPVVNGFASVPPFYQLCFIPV
Protocol: (§1) The elimination profiles of tegoprazan and M1 were assessed using rCYPs. All the assay procedures were performed according to the manufacturer’s instructions. Master mix (1.399 mL), containing the NADPH-generating system, 3.3 mM of glucose 6-phosphate, PBS buffer, deionized water, and each rCYP (25 pmol/μL of CYP2C8, 2C19, and 2E1 and 50 pmol/μL of CYP3A4, 2C9, and 2D6), was added to a microtube and pre-incubated at 37 °C for 5 min. Next, 1 μM tegoprazan and M1 were added and incubated at 37 °C for 0, 5, 10, 20, 30, 45, and 60 min. A total of 100 μL of the sample, incubated for predefined duration, was transferred to a fresh e-tube. Next, 200 μL of acetonitrile containing tegoprazan-d6 (0.5 μM) was added, vortexed for 5 min, and centrifuged at 16,200× g and 4 °C for 10 min. The concentrations of the remaining tegoprazan and M1 were determined by LC–MS/MS. All experiments were performed in duplicate. CLint,rCYP levels were assessed using the results of the disappearance test. […] The CLint resulting from rCYPs was calculated using Equation (3):(3) CLint,rCYP(μL/min/pmol CYP)=0.693/t1/2×1400/concentration of CYP
(§2) Caco-2 and rCYP samples were quantified using LC-MS/MS (UPLC® I-class coupled with TQ-MS (Waters, Milford, MA, USA). The mobile phase comprised (a) 0.1% formic acid and (b) acetonitrile containing 0.1% formic acid. Gradient elution at a flow rate of 0.3 mL/min was applied. Tegoprazan, M1, and the internal standard (tegoprazan-d6) were optimized in electrospray ionization positive mode. Acetonitrile with 0.1 μM of tegoprazan-d6 was added to the collected Caco-2 or rCYP samples. Then, processed samples were centrifuged at 13,000× g for 20 min. After centrifugation, 100 μL of supernatant was transferred to an LC-MS vial and analyzed using LC-MS/MS. […] The stability of tegoprazan was evaluated, and it satisfied the acceptance criteria (coefficient of variances was within 15%) under variable conditions including reinjection, processed sample stability (PSS), and short-term stability for the stock and sample.

[1] = Physicochemical properties (solubility, pKa, LogP, BCS class); settings: from high permeability and low solubility
CYP2E1 = biological target: T2, CYP2E1 (Homo sapiens, UniProt P05181); assay: Intrinsic clearance using recombinant CYPs: CYP2E1; format: in vitro ADME
T2 construct: purchased Corning Life Sciences (Woburn, MA, USA)
T2 sequence (P05181 whole entry): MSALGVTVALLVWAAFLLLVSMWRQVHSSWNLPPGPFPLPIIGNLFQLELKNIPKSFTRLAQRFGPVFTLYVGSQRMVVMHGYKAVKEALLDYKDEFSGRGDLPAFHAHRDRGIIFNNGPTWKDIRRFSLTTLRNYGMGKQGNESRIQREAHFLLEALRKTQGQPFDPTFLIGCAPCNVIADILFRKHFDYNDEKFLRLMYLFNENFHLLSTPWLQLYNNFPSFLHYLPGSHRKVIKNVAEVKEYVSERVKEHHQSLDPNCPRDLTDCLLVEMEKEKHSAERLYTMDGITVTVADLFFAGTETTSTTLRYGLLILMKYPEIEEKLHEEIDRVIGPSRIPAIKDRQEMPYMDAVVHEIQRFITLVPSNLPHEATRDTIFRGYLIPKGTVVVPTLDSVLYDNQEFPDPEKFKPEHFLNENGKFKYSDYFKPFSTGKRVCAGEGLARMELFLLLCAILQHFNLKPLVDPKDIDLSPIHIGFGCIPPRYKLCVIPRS
Protocol: as §1, §2

[2] = weak base; cited from earlier work
[3] = Microsomal metabolic stability in human liver microsomes; format: in vitro ADME
Protocol: The NADPH-generating system, glucose 6-phosphate (3.3 mM), 0.1 M potassium phosphate (pH 7.4), and human liver microsomes (HLMs; 0.5 mg/mL) were combined and incubated at 37 °C for 5 min. The organic content in the reaction mixture was 0.01% DMSO and less than 1% acetonitrile. Then, 1 μM tegoprazan and M1 were added to the reaction tube (total volume: 160 μL) and incubated at 37 °C for 0, 5, 15, 30, and 60 min. To terminate the reaction, 320 μL of acetonitrile containing an internal standard (100 ng/mL carbamazepine) was added to each sample. All experiments were performed in triplicate. The samples were vortexed for 5 min and centrifuged at 3000 rpm at 4 °C for 10 min. The concentrations of tegoprazan and M1 were determined by liquid chromatography–tandem mass spectrometry (LC–MS/MS). The concentrations of tegoprazan and M1 at 0 min were used to assess metabolism by HLMs based on changes in drug concentration over time. The terminal slope of linear regression was used to calculate the intrinsic clearance (CLint) of tegoprazan and M1. For the in vitro HLM system, CLint was calculated using Equation (1). CLint,mic (μL/min/mg protein) = k × Vincubation/Cincubation(1) where Vincubation is the incubation volume and Cincubation is the concentration of the microsomal protein.

[4] = set-up: method as in earlier work; settings: cited from earlier work

Cc1nc2cc(C(=O)N(C)C)cc(O[C@H]3CCOc4cc(F)cc(F)c43)c2[nH]1 [tegoprazan]
CLint, CYP2C9 (CYP2C9; 1 μM, experimental data): 0.14 µL/min/pmol and 0.140 µL/min/pmol
half-life at 1 μM (CYP2C9; human, recombinant CYP2C9, rCYP2C9): 2.27 h
Slope (disappearance) (CYP2C9; rCYP2C9, 1 μM): -0.005
biopharmaceutics classification system (BCS) class [1]: class II
CLint, CYP2E1 (CYP2E1; 1 μM, experimental data): 0.03 µL/min/pmol and 0.030 µL/min/pmol
half-life at 1 μM (CYP2E1; human, recombinant CYP2E1, rCYP2E1): 11.6 h
Slope (disappearance) (CYP2E1; rCYP2E1, 1 μM): -0.001
pKa [2]: 5.1
HLM intrinsic clearance (CLint,HLM) ([3]; 1 μM, HLM 0.5 mg/mL with NADPH, experimental data): 15.96 μL/min/mg protein
percentage remaining after incubation ([3]; control sample without NADPH): 99.54% ± 5.32
microsomal CLint at 1 μM ([3]; human, human liver microsomes, pH 7.4, 1 μM, HLM 0.5 mg/mL with NADPH, experimental data, read-out: HLM intrinsic clearance (CLint,HLM)): 16 µL/min/mg
CLR (renal clearance) [4]: 1.1 L/h
fu (unbound fraction) ([4]; plasma): 0.087
